This is an account of results in PMC4984408 (ChemistryOpen, 2016).

For data set [1], the system named is yellow fever (YFV, 17 D strain of ASIBI). Format: cell-based, yellow fever virus.
In data set [2] the test system is dengue viruses (DENV, serotype D2). It is filed as cell-based, dengue virus.
Data set [3] has as its system Vero cells.

Broadly, the CC50 is the concentration at which the toxic effect on the cells reaches its halfway point. Read a low CC50 as harm at low concentration.

Read-outs that look alike come from different tables or passages of the source.

Regarding `COc1ccc(C(OC[C@H]2O[C@@H](n3ccc(=O)[nH]c3=O)[C@H](F)[C@@H]2O)(c2ccccc2)c2ccc(OC)cc2)cc1` [16 H, 5′‐O‐dimethoxytrityl‐2′‐fluoro‐2′‐deoxyuridine], the “YFV inhibition [% Cells alive]” value in data set [1] (5 μM) and in data set [1] (10 μM) was 0 % Cells alive throughout. Further, the “D2 inhibition [% Cells alive]” value in data set [2] (5 μM), in data set [2] (10 μM) and in data set [2] (20 μM) was 0 % Cells alive in each case. The CC50 in data set [3] is more than 20 µM.

In the case of `Cc1cn([C@H]2C[C@H](O)[C@@H](COC(c3ccccc3)(c3ccccc3)c3ccccc3)O2)c(=O)[nH]c1=O` [Compound 1, 5′‐O‐trityl‐thymidine], the “YFV inhibition [% Cells alive]” value in data set [1] (5 μM) amounted to 0 % Cells alive; in data set [1] (10 μM) it was 1.25±0.03 % Cells alive. In addition, in data set [2], the “anti-DENV activity (in words)” value was “no inhibitory properties”. The “D2 inhibition [% Cells alive]” value in data set [2] (5 μM), in data set [2] (10 μM) and in data set [2] (20 μM) was 0 % Cells alive throughout.

With `O[C@H]1[C@H](O)[C@@H](COC(c2ccccc2)(c2ccccc2)c2ccccc2)O[C@H]1n1cnc2c(NC(c3ccccc3)(c3ccccc3)c3ccccc3)nc(F)nc21` [20 D‐NHTr, 5′‐O,N‐trityl‐fludarabine], the “anti-YFV activity (in words)” value in data set [1] is “devoid of any significant anti‐YFV inhibitory effect”. Further, the “YFV inhibition [% Cells alive]” value in data set [1] (5 μM) worked out at 0 % Cells alive; in data set [1] (10 μM), 0.28 % Cells alive; in data set [1] (20 μM), 0.84 % Cells alive. The CC50 in data set [3] is more than 20 µM. In data set [3], the “cytotoxicity (in words)” value is “no cytotoxicity”.

As for `O=c1[nH]c(=O)n([C@@H]2O[C@H](COC(c3ccccc3)(c3ccccc3)c3ccccc3)[C@@H](O)[C@H]2O)cc1F` [6 D, 5′‐O‐trityl‐5‐fluorouridine], the “YFV inhibition [% Cells alive]” value in data set [1] (5 μM) and in data set [1] (10 μM) was 0 % Cells alive throughout. The “anti-DENV activity (in words)” value in data set [2] is on record as “no inhibitory properties”. In addition, the “D2 inhibition [% Cells alive]” value in data set [2] (5 μM), in data set [2] (10 μM) and in data set [2] (20 μM) was 0 % Cells alive throughout.

Turning to `Cc1cn([C@H]2C[C@H](OC(c3ccccc3)(c3ccccc3)c3ccccc3)[C@@H](COC(c3ccccc3)(c3ccccc3)c3ccccc3)O2)c(=O)[nH]c1=O` [21 B, 5′,3′‐bis‐O‐trityl‐thymidine], the figures for the “YFV inhibition [% Cells alive]” value in data set [1] (5 μM), in data set [1] (10 μM) and in data set [1] (20 μM) were 0 % Cells alive, 0 % Cells alive and 0.95±0.17 % Cells alive, respectively. Moreover, the “D2 inhibition [% Cells alive]” value in data set [2] (5 μM), in data set [2] (10 μM) and in data set [2] (20 μM) was 0 % Cells alive throughout.

Turning to `Cc1cn([C@@H]2O[C@H](COC(c3ccccc3)(c3ccccc3)c3ccccc3)[C@@H](O)[C@H]2O)c(=O)[nH]c1=O` [19 D, 5′‐O‐trityl‐5‐methyluridine], the “YFV inhibition [% Cells alive]” value in data set [1] (5 μM) and in data set [1] (10 μM) was 0 % Cells alive each time. The “anti-DENV activity (in words)” value in data set [2] was “no inhibitory properties”. In addition, the “D2 inhibition [% Cells alive]” value in data set [2] (5 μM), in data set [2] (10 μM) and in data set [2] (20 μM) was 0 % Cells alive in each case.

Consider `O=c1[nH]c(NC(c2ccccc2)(c2ccccc2)c2ccccc2)nc2c1ncn2CCC(COC(c1ccccc1)(c1ccccc1)c1ccccc1)COC(c1ccccc1)(c1ccccc1)c1ccccc1` [22 B‐NHTr, 2‐N,5′,3′‐O‐tri‐trityl penciclovir], for which the figures for the “YFV inhibition [% Cells alive]” value in data set [1] (5 μM), in data set [1] (10 μM) and in data set [1] (20 μM) were 0 % Cells alive, 0 % Cells alive and 8.09±0.04 % Cells alive, respectively. The “D2 inhibition [% Cells alive]” value in data set [2] (5 μM), in data set [2] (10 μM) and in data set [2] (20 μM) was 0 % Cells alive each time. In data set [3], this molecule registered a CC50 of more than 20 µM.

Turning to `COc1ccc(C(OC[C@H]2O[C@@H](n3cc(F)c(=O)[nH]c3=O)[C@H](O)[C@@H]2O)(c2ccccc2)c2ccc(OC)cc2)cc1` [6 H, 5′‐O‐dimethoxytrityl‐5‐fluorouridine], the “YFV inhibition [% Cells alive]” value in data set [1] (5 μM) is 9.22±0.46 % Cells alive; in data set [1] (10 μM), 30.89±1.85 % Cells alive. The “D2 inhibition [% Cells alive]” value in data set [2] (5 μM), in data set [2] (10 μM) and in data set [2] (20 μM) was 0 % Cells alive in each case. In data set [3], the CC50 was more than 20 µM.

Consider `O=c1ccn([C@@H]2O[C@H](COC(c3ccccc3)(c3ccccc3)c3ccccc3)[C@@H](O)[C@H]2F)c(=O)[nH]1` [16 D, 5′‐O‐trityl‐2′‐fluoro‐2′‐deoxyuridine], for which the “YFV inhibition [% Cells alive]” value in data set [1] (5 μM), in data set [1] (10 μM) and in data set [1] (20 μM) was 0 % Cells alive throughout. For the same molecule, the “D2 inhibition [% Cells alive]” value in data set [2] (5 μM) and in data set [2] (10 μM) was 0 % Cells alive throughout.

For `COc1ccc(C(OCC2OC(n3ccc(NC(C)=O)nc3=O)CS2)(c2ccccc2)c2ccc(OC)cc2)cc1` (stereo not shown) [12 H, 5′‐O‐Dimetoxytrityl‐N‐acetyl‐lamivudine], the “YFV inhibition [% Cells alive]” value amounted to 0 % Cells alive in data set [1] (5 μM), 0 % Cells alive in data set [1] (10 μM) and 70.45±18.31 % Cells alive in data set [1] (20 μM). Also, the “D2 inhibition [% Cells alive]” value in data set [2] (5 μM), in data set [2] (10 μM) and in data set [2] (20 μM) was 0 % Cells alive throughout. In addition, in data set [3], the CC50 was more than 20 µM.

For `O=c1[nH]c(=O)n([C@H]2C[C@H](O)[C@@H](COC(c3ccccc3)(c3ccccc3)c3ccccc3)O2)cc1I` [14 D, 5′‐O‐Trityl‐5‐iodo‐2′‐deoxyuridine], the “YFV inhibition [% Cells alive]” value in data set [1] (5 μM), in data set [1] (10 μM) and in data set [1] (20 μM) was 0 % Cells alive in each case. Besides, the “D2 inhibition [% Cells alive]” value in data set [2] (5 μM) is reported as 0 % Cells alive; in data set [2] (10 μM), 0 % Cells alive; in data set [2] (20 μM), 2.47±0.06 % Cells alive.

Turning to `NC(=O)c1ncn([C@@H]2O[C@H](COC(c3ccccc3)(c3ccccc3)c3ccccc3)[C@@H](OC(c3ccccc3)(c3ccccc3)c3ccccc3)[C@H]2O)n1` [5 B, 5′,3′‐bis‐O‐tritylribavirin], the “YFV inhibition [% Cells alive]” value in data set [1] (5 μM), in data set [1] (10 μM) and in data set [1] (20 μM) was 0 % Cells alive each time. In addition, the “D2 inhibition [% Cells alive]” value in data set [2] (5 μM) and in data set [2] (10 μM) was 0 % Cells alive each time. In data set [3], this molecule had a CC50 of more than 20 µM.

In the case of `COc1ccc(C(OC[C@H]2O[C@@H](n3cc(F)c(=O)[nH]c3=O)C[C@@H]2O)(c2ccccc2)c2ccc(OC)cc2)cc1` [15 H, 5′‐O‐dimethoxytrityl‐5‐fluoro‐2′‐deoxyuridine], the “YFV inhibition [% Cells alive]” value in data set [1] (5 μM) worked out at 0 % Cells alive. In addition, the “D2 inhibition [% Cells alive]” value in data set [2] (5 μM), in data set [2] (10 μM) and in data set [2] (20 μM) was 0 % Cells alive in each case. Also, in data set [3], the CC50 is more than 20 µM.

With `COc1ccc(C(OC[C@H]2O[C@@H](n3ccc(=O)[nH]c3=O)[C@H](O)[C@@H]2O)(c2ccccc2)c2ccc(OC)cc2)cc1` [9 H, 5′‐O‐Dimethoxytrityluridine], the “D2 inhibition [% Cells alive]” value in data set [2] (5 μM), in data set [2] (10 μM) and in data set [2] (20 μM) was 0 % Cells alive in each case. In data set [3], this molecule showed a CC50 of more than 20 µM.
